Key:
[1] = compound: CC(=O)O[C@H]1C(=O)[C@@]2(C)[C@H]([C@H](OC(=O)c3ccccc3)[C@]3(O)C[C@H](OC(=O)[C@H](O)[C@@H](NC(=O)c4ccccc4)c4ccccc4)C(C)=C1C3(C)C)[C@]1(OC(C)=O)CO[C@@H]1C[C@@H]2O [Paclitaxel]; conditions: max 3 µM
Procedure, shortened: (§1)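 Cancer cell lines were plated in 1536-well plates in 7.5 μl of DMEM/F12 or RPMI with 10% FBS and kept 24 hours at 37°C and 5% CO2 before 72 hours of dosing, with final DMSO typically 0.2%. CellTiter-Glo 2.0 luminescence measured viability, scaled between blank-well and DMSO-well means. Dose responses were fitted to a two-parameter logistic curve with a non-linear mixed effects model. This fit gives the single-agent IC50.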

[2] = compound: C[C@@H](c1ccc2nccn2c1)n1nnc2ncc(-c3cnn(C)c3)nc21 [Savolitinib]; conditions: max 1 µM
Procedure, shortened: as §1

[3] = compound: COc1cc([C@@H]2c3cc4c(cc3[C@@H](O[C@@H]3O[C@@H]5CO[C@@H](C)O[C@H]5[C@H](O)[C@H]3O)[C@H]3COC(=O)[C@H]23)OCO4)cc(OC)c1O [Etoposide]; conditions: max 10 µM
Procedure, shortened: as §1

[4] = compound: Cc1cc2ncnn2cc1Nc1ncc2c(n1)n(C1CCOCC1)c(=O)n2C [AZD7648]; conditions: max 10 µM
Procedure, shortened: as §1

[5] = compound: CC(C)n1c(=O)n(C)c2cnc3cc(F)c(-c4ccc(OCCCN5CCCCC5)nc4)cc3c21 [AZD1390]; conditions: max 0.3 µM
Procedure, shortened: as §1

[6] = compound: N#Cc1cnc(Nc2cc(NC[C@H]3CNCCO3)c(C(F)(F)F)cn2)cn1 [SRA737]; conditions: max 10 µM
Procedure, shortened: as §1

[7] = compound: COc1nnc2ccc(N3CCC(c4ccc(OCCN5CCN(C)C(=O)[C@H]5C)cc4)CC3)nn12 [AZD5153]; conditions: max 1 µM
Procedure, shortened: as §1

[8] = compound: CN(CC[C@H](CSC1=CC=CC=C1)NC2=C(C=C(C=C2)S(=O)(=O)NC(=O)C3=CC=C(C=C3)N4CCC(CC4)[C@H](C5=CC=CC=C5C6=CC=C(C=C6)Cl)O)S(=O)(=O)C(F)(F)F)CCO [AZD4320]; conditions: max 1 µM
Procedure, shortened: as §1

[9] = compound: CC1(C)CCC(CN2CCN(c3ccc(C(=O)NS(=O)(=O)c4ccc(NCC5CCOCC5)c([N+](=O)[O-])c4)c(Oc4cnc5[nH]ccc5c4)c3)CC2)=C(c2ccc(Cl)cc2)C1 [Venetoclax]; conditions: max 1 µM
Procedure, shortened: as §1

[10] = compound: COc1cc(Nc2ncc3c(n2)-c2ccc(Cl)cc2C(c2c(F)cccc2OC)=NC3)ccc1C(=O)O [Alisertib]; conditions: max 10 µM
Procedure, shortened: as §1

[11] = compound: CC(=O)Nc1cccc(-n2c(=O)n(C3CC3)c(=O)c3c(Nc4ccc(I)cc4F)n(C)c(=O)c(C)c32)c1 [Trametinib]; conditions: max 1 µM
Procedure, shortened: as §1

[12] = compound: O=C(c1cc(Cc2n[nH]c(=O)c3ccccc23)ccc1F)N1CCN(C(=O)C2CC2)CC1 [Olaparib]; conditions: max 10 µM
Procedure, shortened: as §1

[13] = compound: CCc1c2c(nc3ccc(O)cc13)-c1cc3c(c(=O)n1C2)COC(=O)[C@]3(O)CC [SN-38]; conditions: max 0.3 µM
Procedure, shortened: as §1

[14] = compound: O=C(Nc1ccc2[nH]nc(-c3ccncc3)c2c1)[C@@H]1CCN(CC(=O)N2CCN(c3ccc(-c4ncccn4)cc3)CC2)C1; conditions: max 5 µM
Procedure, shortened: as §1

[15] = compound: COc1cccc(OCCCN)c1-c1cc(Nc2cnc(C#N)cn2)n[nH]1 [Prexasertib]; conditions: max 1 µM
Procedure, shortened: as §1

[16] = compound: C[C@@H](Nc1cc(F)cc(F)c1)c1cc(C(=O)N(C)C)cc2c(=O)cc(N3CCOCC3)oc12 [AZD8186]; conditions: max 10 µM
Procedure, shortened: as §1

[17] = compound: CC(=O)c1c(C)c2cnc(Nc3ccc(N4CCNCC4)cn3)nc2n(C2CCCC2)c1=O [Palbociclib]; conditions: max 10 µM
Procedure, shortened: as §1

[18] = compound: C1CN(CCC1(C(=O)N[C@@H](CCO)C2=CC=C(C=C2)Cl)N)C3=NC=NC4=C3C=CN4 [AZD5363]; conditions: max 10 µM
Procedure, shortened: as §1

[19] = compound: CN(C)CCCOc1ccc(-c2ccc3ncc4c(c3c2)n(C2CCOCC2)c(=O)n4C)cn1 [AZD0156]; conditions: max 3 µM
Procedure, shortened: as §1

[20] = compound: CC1=CN2[C@@H](C1)C=NC3=CC(=C(C=C3C2=O)OC)OCCCCCOC4=C(C=C5C(=C4)N=C[C@@H]6CC(=CN6C5=O)C)OC [SG3199]; conditions: max 0.001 µM
Procedure, shortened: as §1

[21] = compound: CCN(CCO)CCCOc1ccc2c(Nc3cc(CC(=O)Nc4cccc(F)c4)[nH]n3)ncnc2c1 [AZD2811]; conditions: max 1 µM
Procedure, shortened: as §1

[22] = compound: CS(=O)(=O)CCNCc1ccc(-c2ccc3ncnc(Nc4ccc(OCc5cccc(F)c5)c(Cl)c4)c3c2)o1 [Lapatinib]; conditions: max 10 µM
Procedure, shortened: as §1

[23] = compound: Nc1ccn([C@@H]2O[C@H](CO)[C@@H](O)C2(F)F)c(=O)n1 [Gemcitabine]; conditions: max 0.3 µM
Procedure, shortened: as §1

[24] = compound: Cn1cnc2c(F)c(Nc3ccc(Br)cc3Cl)c(C(=O)NOCCO)cc21 [Selumetinib]; conditions: max 10 µM
Procedure, shortened: as §1

[25] = compound: C[C@@H]1COCCN1C2=NC(=NC(=C2)C3(CC3)[S@](=N)(=O)C)C4=C5C=CNC5=NC=C4 [AZD6738]; conditions: max 10 µM
Procedure, shortened: as §1

[26] = compound: C[C@@H](Oc1cc(-c2cnn(C3CCNCC3)c2)cnc1N)c1c(Cl)ccc(F)c1Cl [Crizotinib]; conditions: max 10 µM
Procedure, shortened: as §1

[27] = compound: CC1=C(C(=CC=C1)Cl)NC(=O)C2=CN=C(S2)NC3=CC(=NC(=N3)C)N4CCN(CC4)CCO [Dasatinib]; conditions: max 2 µM
Procedure, shortened: as §1

[28] = compound: Cc1c2c(nn1C)CSCc1cc(n(C)n1)CSc1cc(c3ccccc3c1)OCCCc1c(C(=O)O)n(C)c3c-2c(Cl)ccc13 [AZD5991]; conditions: max 1 µM
Procedure, shortened: as §1

[29] = compound: COc1cccc2c1C(=O)c1c(O)c3c(c(O)c1C2=O)C[C@@](O)(C(=O)CO)C[C@@H]3O[C@H]1C[C@H](N)[C@H](O)[C@H](C)O1 [Doxorubicin]; conditions: max 1 µM
Procedure, shortened: as §1

[30] = compound: C1CC(C1)(C(=O)[O-])C(=O)[O-].N.N.[Pt+2] [Carboplatin]; conditions: max 10 µM
Procedure, shortened: as §1

[31] = compound: Cc1nc(-c2cn3c(n2)-c2ccc(-c4cnn(C(C)(C)C(N)=O)c4)cc2OCC3)n(C(C)C)n1 [Taselisib]; conditions: max 10 µM
Procedure, shortened: as §1

[32] = compound: NC1(c2ccc(-c3nc4ccn5c(=O)[nH]nc5c4cc3-c3ccccc3)cc2)CCC1 [MK-2206]; conditions: max 10 µM
Procedure, shortened: as §1

[33] = compound: COc1cc2ncnc(Nc3ccc(F)c(Cl)c3)c2cc1OCCCN1CCOCC1 [Gefitinib]; conditions: max 10 µM
Procedure, shortened: as §1

[34] = compound: O=c1[nH]cc(F)c(=O)[nH]1 [5-Fluorouracil]; conditions: max 20 µM
Procedure, shortened: as §1

[35] = compound: C=CCn1c(=O)c2cnc(Nc3ccc(N4CCN(C)CC4)cc3)nc2n1-c1cccc(C(C)(C)O)n1 [AZD1775]; conditions: max 3 µM
Procedure, shortened: as §1

Cell Line: SNU-C1 (Colorectal Carcinoma)
- IC50, cell viability 72 h [1]: > 3000 nM
- IC50, cell viability 72 h [2]: > 1000 nM
- IC50, cell viability 72 h [3]: > 10000 nM
- IC50, cell viability 72 h [4]: > 10000 nM
- IC50, cell viability 72 h [5]: > 300 nM
- IC50, cell viability 72 h [6]: > 10000 nM
- IC50, cell viability 72 h [7]: > 1000 nM
- IC50, cell viability 72 h [8]: > 1000 nM
- IC50, cell viability 72 h [9]: > 1000 nM
- IC50, cell viability 72 h [10]: > 10000 nM
- IC50, cell viability 72 h [11]: 75.1 nM
- IC50, cell viability 72 h [12]: > 10000 nM
- IC50, cell viability 72 h [13]: > 300 nM
- IC50, cell viability 72 h [14]: 802 nM
- IC50, cell viability 72 h [15]: 73.5 nM
- IC50, cell viability 72 h [16]: > 10000 nM
- IC50, cell viability 72 h [17]: > 10000 nM
- IC50, cell viability 72 h [18]: > 10000 nM
- IC50, cell viability 72 h [19]: > 3000 nM
- IC50, cell viability 72 h [20]: > 1 nM
- IC50, cell viability 72 h [21]: > 1000 nM
- IC50, cell viability 72 h [22]: > 10000 nM
- IC50, cell viability 72 h [23]: > 300 nM
- IC50, cell viability 72 h [24]: 1260 nM
- IC50, cell viability 72 h [25]: > 10000 nM
- IC50, cell viability 72 h [26]: > 10000 nM
- IC50, cell viability 72 h [27]: > 2000 nM
- IC50, cell viability 72 h [28]: > 1000 nM
- IC50, cell viability 72 h [29]: > 1000 nM
- IC50, cell viability 72 h [30]: > 10000 nM
- IC50, cell viability 72 h [31]: 3360 nM
- IC50, cell viability 72 h [32]: 9530 nM
- IC50, cell viability 72 h [33]: > 10000 nM
- IC50, cell viability 72 h [34]: > 20000 nM
- IC50, cell viability 72 h [35]: > 3000 nM
